Structures are written as SMILES.

For data set [1] the following is noted: Kamei et al, J. Antibiotics vol XLIII No. 8, 1018-1020; cited from earlier work.
The subject of data set [2] is AR 1.0 cells. Nature of the data set: Drug accumulation assay (tritiated daunorubicin, AR 1.0 cells). The data set is classed as cell-based, mouse. The note with it: Mus musculus, 1 h, daunorubicin accumulation, 37° C., DNR 2 μM. On the procedure:
(§1) The EMT6 mouse mammary carcinoma cell line and the MDR resistant subline AR 1.0 were cultured in RPMI 1640 medium containing 10% foetal calf serum and 2mM glutamine at 37° C. in 5% CO2. Cells were passaged between 1 in 200 and 1 in 2000 in the case of the parental cell line and between 1 in 20 and 1 in 200 in the case of the MDR resistant subline, after trypsinisation (0.25% trypsin, 0.2 gl^-1, EDTA).
1. Drug accumulation assay
AR 1.0 cells were seeded into 96 well opaque culture plates (Canberra Packard). The assay medium contained a mixture of tritiated Daunorubicin (DNR), a cytotoxic agent, and unlabelled DNR (0.25μ Ci/ml; 2 μM). Compounds of formula A were serially diluted in assay medium over a range of concentrations from 100 nM to 100 μM. The cells were incubated at 37° C. for 1 hr before washing and counting of cell associated radioactivity. Each assay included a titration of the known resistance modifying agent Verapamil as positive control. Results were expressed as % maximum accumulation where 100% accumulation is that observed in the presence of 100 μM Verapamil.

Data set [3] concerns AR 1.0 cells. Nature of the data set: Proliferation/toxicity assay, compound alone and with cytotoxic agent (sulphorhodamine B). The data set is classed as cell-based, mouse.
In data set [4] the test system is AR 1.0 cells. Briefly: Potentiation of Doxorubicin toxicity (potentiation index, AR 1.0 cells). The data set is classed as cell-based, mouse. The note with it: Conc Comp 5 μM; doxorubicin 0.5 nM-50 μM, four days. On the procedure:
as §1
2. Potentiation of Doxorubicin toxicity
Compounds of formula A were examined for their ability to potentiate the toxicity of doxorubicin in AR 1.0 cells. In initial proliferation assays compounds were titrated against a fixed concentration of doxorubicin (0.5-1 μM) which alone is non-toxic to AR 1.0 cells. Incubations with doxorubicin were over a four day period before quantitation of proliferation using the calorimetric sulphorhodamine B assay (Skehan et al; J. Natl. Cancer Inst. 82 pp 1107-1112 (1990)).
Cells were cultured for four days with concentrations of doxorubicin over the range of 0.5 nM-50 μM in the presence of Verapramil at its maximum subtoxic level determined from previous experiments. Proliferation was quantified as described by Skehan et al, loc cit. The IC50 (concentration required to reduce proliferation to 50% of the untreated controls) for doxorubicin alone and with the Verapamil were derived and used to calculate the potentiation index (PI): […]

Data set [5] concerns MDR cells. Conditions: in vitro and in vivo; Cancer Res., 41, 1967-1972 (1981); cited from earlier work.
Where [6] appears, read: Mus musculus, compound alone, read-out: COMPOUND TOXICITY (IC50 μM).
Setting [7] is: cytotoxic agent (doxorubicin) 0.50 μg/ml, 5760 min, read-out: TOXICITY WITH CYTOTOXIC AGENT (IC 50 μM).

In the case of `O=c1[nH]/c(=C\c2ccccc2)c(=O)[nH]/c1=C\c1ccccc1` [B], the “potentiation of the cytotoxicity of vincristine” value in data set [1] is on record as “have utility as potentiators of the cytotoxicity of vincristine”.

For the compound `Cn1c(=O)/c(=C/C2CCCCC2)n(C)c(=O)/c1=C/c1ccccc1` [Compound 1871, (3Z,6Z)-3-Benzylidene-6-cyclohexylmethylene-1,4-dimethyl-2,5-piperazinedione], the IC50 is 6 µM in data set [2], 40 µM in data set [3] (setting [6]) and 1 µM in data set [3] (setting [7]). The “Potentiation Index (at 5 μM)” value in data set [4] is on record as 20.

On to `Cn1c(=O)/c(=C/c2cn(CN3C(=O)c4ccccc4C3=O)c3ccccc23)n(C)c(=O)/c1=C/c1ccccc1` [Compound 1897], for which the IC50 worked out at 3 µM in data set [2], 50 µM in data set [3] (setting [6]) and 1.5 µM in data set [3] (setting [7]). Further, the “Potentiation Index (at 5 μM)” value in data set [4] came to 75.

Consider `Cn1c(=O)/c(=C/c2cn(C(=O)OCc3ccccc3)c3ccccc23)n(C)c(=O)/c1=C/c1ccccc1` [Compound 1940, (3Z,6Z)-3-Benzylidene-6-(1-benzyloxycarbonyl-3-indolyl)methylene-1,4-dimethyl-2,5-piperazinedione], for which the results for the IC50 in data set [2] and in data set [3] (setting [6]) were 10 µM and 7 µM, respectively. In data set [4], the “Potentiation Index (at 5 μM)” value amounted to 14.

For `Cn1c(=O)/c(=C/c2cn(CCCN3C(=O)c4ccccc4C3=O)c3ccccc23)n(C)c(=O)/c1=C/c1ccccc1` [Compound 1943, (3Z,6Z)-3-Benzylidene-1,4-dimethyl-6-(3-(1-(3-phthalimido)propyl)indolyl)methylene-2,5-piperazinedione], the figures for the IC50 in data set [2], in data set [3] (setting [6]) and in data set [3] (setting [7]) were 10 µM, 60 µM and 0.2 µM, respectively. The “Potentiation Index (at 5 μM)” value in data set [4] stood at 20.

With `COc1ccc(CCN(C)CCCC(C#N)(c2ccc(OC)c(OC)c2)C(C)C)cc1OC` (centres unmarked) [Verapamil], the “sensitisation of MDR cells to vinca alkaloids” value in data set [5] was “shown to sensitise MDR cells to vinca alkaloids in vitro and in vivo”.

These data come from patent publication US5861400A, “Pharmaceutical compounds” (Xenova Limited, priority 1994, dated 1999).
